Assays:
[1] = tested on: NF-κB; assay: Firefly luciferase NF-κB reporter assay in TNF-α-stimulated HEK293 cells; format: cell-based; details: for inhibition of TNF-α-induced NF-κB activation (luciferase reporter), in words: 293 NF-κB luciferase reporter cells, 10 ng/ml TNF-α, compound 12909780 at 100 μM
Description: This model was used to screen a subset of the drug-like ZINC 8.0 database set (˜900,000 compounds) (Irwin et al., 2005). We were able to identify 161 hits that matched at least 6 features out of eight of the pharmacophore model. […] Two compounds termed NBDA-1 (Zinc-13) and NBDA-2 (Zinc-5), successfully passed these filters (See FIG. 4) and were purchased for biological testing. The compounds were then tested for ability to inhibit TNF-alpha-mediated induction of NF-κB activity in a 293 cells stably modified with a NF-κB luciferase reporter.
The activation of NF-κB was then quantitated by measuring the level of luciferase activity. […] Also, protein extracts were prepared from the same cells and the level of phospho-IkB determined, a marker of IKK activity.
To test if the small molecules identified by the in silico screen inhibit NF-κB activation, a HEK293 cell line stably expressing a luciferase reporter driven by a synthetic, NF-κB-dependent promoter was utilized. To induce NF-κB activation, cells were treated with 10 ng/ml of TNF-α and harvested three hours post-treatment for analysis of luciferase activity. […] To determine if compound 12909780 inhibited NF-κB in a dose dependent manner, concentrations were tested at 0, 6.25, 25, 50 and 100 μM.
HEK293 cells stably transfected with luciferase reporter plasmid driven by NF-κB were seeded in 96-well plate in triplicate and pretreated with DMSO or varying small molecules at indicated concentration for 30 min, followed by the stimulation of 10 ng/ml of TNFα for 3 hr. Cell were washed with PBS once and harvested in passive lysis buffer. Luciferase assay (Promega) was performed using a luminometer according to the manufacturer's instructions.

[2] = tested on: HEK293 cells; assay: MTT cell viability assay; format: cell-based
Description: To identify NBD mimetics with higher biological activity than compound 12909780 or the NBD peptide, we next screened the ZINC 10.0 database (approximately 3.5 million compounds) in silico for structurally similar compounds (24).
Cell viability was calculated by normalizing values to untreated control.

[3] = tested on: p-IκBα; assay: Western blot of IκBα phosphorylation after TNF-α; format: cell-based; details: 10 ng/ml TNF-α, 0, 5 and 10 min; 100 μM compound
Description: (§1) To confirm that the NBD mimetics reduce IKK activity, the extent of phosphorylation of the IKK target, IκBα, in response to 10 ng/ml of TNF-α was determined by Western blot at 0, 5 and 10 min after TNF-α stimulation. […] To determine if the mimetics also reduce NF-κB DNA binding activity, electrophoretic mobility shift assay (EMSA) was conducted both in vivo and in vitro.
HEK293 cells grown in a 6-well plate at 1×10^6 cells/well were left untreated or treated with 100 μM of ZINC12909780 or ZINC3369392 for 30 min, followed by 10 ng/ml of TNFα for 0, 5 and 10 min. Cells were then harvested for western blot. Cell lysate was prepared in RIPA buffer (20 mM Tris-HCl (pH 7.5), 150 mM NaCl, 1 mM Na^2EDTA, 1 mM EGTA, 1% NP-40, 1% sodium deoxycholate, 2.5 mM sodium pyrophosphate, 1 mM beta-glycerophosphate, 1 mM Na3VO4, 1 μg/ml leupeptin, 1× protease inhibitor cocktails (sigma) and 1× Halt phosphatase inhibitor cocktail (Thermo)). 30 ug of protein was resolved by MINI-PROTEAN TGX 4-15% SDS-PAGE. Blots were blocked in 5% non-fat milk. Primary antibodies were incubated at 4° C. overnight and secondary antibodies were incubated at room temperature for 1 hour. Anti-p-IκBα (1:1000 CST) and anti-IκBα (1:2000 CST) were used to assess NF-κB activation. Anti-GAPDH (1:5000 CST) was used as a loading control.

[4] = tested on: NF-κB; assay: EMSA of NF-κB DNA binding in C2C12 cells; format: cell-based, mouse; details: 200 μM
Description: as §1
(§2) Cytoplasmic and nuclear fractions were extracted using the NE-PER nuclear and cytoplasmic extraction reagents (ThermoFisher) according to the manufacturer's instructions. The gel shift assay was performed by following the previously described method (41). In brief, 5 μg of nuclear extract was incubated with gel shift binding buffer and an α-^32P-deoxycytodine triphosphate-radiolabeled NF-κB probe for 20 min at room temperature (MP Biomedicals). The oligonucleotide sequences are as follows: NF-κB template, 5′-[…]-3′; NF-κB annealing, 5′-[…]-3′. The reaction product was separated on a 6% non-denaturing polyacrylamide gel.

[5] = tested on: NF-κB; assay: EMSA of NF-κB DNA binding in skeletal muscle of mdx mice after acute treatment; format: in vivo, mouse; details: single ip injection at 10 mg/kg, 1 and 2 hours post-treatment
Description: We also tested the compounds for their ability to inhibit NF-κB activity acutely in a murine model of disease. For these experiments, a mouse model of Duchenne muscular dystrophy, which has elevated NF-κB activity in muscle, was treated with Zinc-13 (NBDA-1) and Zinc-5 (NBDA-2) and the level of NF-κB activity determined by gel shift analysis at 1 and 2 hours post-treatment.
as §1, §2

[6] = target: T1, IKK complex (IKKß, IKKα and NEMO) (Homo sapiens, UniProt Q9Y6K9); assay: Co-immunoprecipitation of NEMO with IKKß in 293 cells; format: cell-based; details: Zinc-5 at 4 hours, Zinc-13 at 1 hour, NBD peptide at 4 hours
T1 construct: analyzed by Western blot for the level of co-precipitated NEMO; endogenous in cells; host or cells: 293 (HEK293) cells
T1 sequence (Q9Y6K9 whole entry, one chain of several): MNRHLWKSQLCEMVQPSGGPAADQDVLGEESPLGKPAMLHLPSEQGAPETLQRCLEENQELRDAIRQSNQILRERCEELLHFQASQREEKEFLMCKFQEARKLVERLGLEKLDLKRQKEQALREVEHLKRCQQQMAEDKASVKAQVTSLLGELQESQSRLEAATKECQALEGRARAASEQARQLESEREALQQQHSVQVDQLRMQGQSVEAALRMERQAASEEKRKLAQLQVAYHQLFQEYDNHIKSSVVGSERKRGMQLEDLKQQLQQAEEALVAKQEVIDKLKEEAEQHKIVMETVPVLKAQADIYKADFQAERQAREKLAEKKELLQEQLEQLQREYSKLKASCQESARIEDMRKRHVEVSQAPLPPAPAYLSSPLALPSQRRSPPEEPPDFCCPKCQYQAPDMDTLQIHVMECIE
Text: FIG. 8 is a bar graph showing the inhibition of TNFα by NBDA-1 (Zinc-13). […] In addition, we have examined the ability of the compounds to disrupt the IKK complex, comprised of IKKß, IKKα and NEMO.
A non-functional, related compound Zinc-7 had no effect.

[7] = tested on: mdx mice; assay: Chronic treatment of mdx mice (Duchenne muscular dystrophy model); format: in vivo, mouse; details: chronic treatment with the ZINC compounds
Text: Mdx mice develop normally at birth, and then undergo a massive myonecrosis starting at three weeks. Treatment of mdx mice with IKK/NF-kB inhibitors effectively reduces inflammation, block necrosis and increase muscle regeneration. Mdx mice were chronically treated with vehicle, SR12343, SR12460 or 8K-NBD starting from day 21, 3 times/week for 4 weeks. […] To determine if SR12343 and SR12460 improve muscle pathology, tibialis anterior (TA) muscle was stained with hematoxylin and eosin (H&E) to assess inflammatory infiltration, necrosis, central nucleation and fibrosis. […] Fiber size in centrally nucleated and non-centrally nucleated myofibers was also smaller in mice treated with SR12343 and 8K-NBD, indicating active reconstruction of myofiber during the regenerative phase.
To determine muscle strength post-treatment, grip strength test on forelimbs was performed 2 weeks and 4 weeks post-treatment.
HEK293 cells were grown in Dulbecco's Modification of Eagles Medium (with 4.5 g/L glucose and L-glutamine), supplemented with 10% fetal bovine serum, penicillin and streptomycin. Raw264.7 cells were cultured in RPMI-1640 media containing 10% heat-inactivated fetal bovine serum, penicillin and streptomycin. C57BL/10ScSn-Dmd^mdx/J and female C57BL/6 mice were purchased from the Jackson Laboratory. Mice were housed in the animal facilities of Scripps Fla. under constant temperature and humidity. Animal protocols used in this study were approved by Scripps Fla. Institutional Animal Care and Use Committees. Three week-old sex-matched mdx mice were dosed with SR12343 (30 mg/kg), […] (30 mg/kg), 8K-NBD peptide (10 mg/kg) or vehicle by intraperitoneal (i.p.) injection 3 times per week for 4 weeks. Mice were sacrificed at 7 weeks of age by carbon dioxide inhalation and tibialis anterior was collected for histological analysis.
Seven week-old treated or untreated mdx mice were measured for forelimb grip strength using a digital grip strength meter paired with a metal grid (Bioseb). Mice were allowed to grip the metal grid tightly and readings were obtained by gently pulling the tail backward until release. Five sequential measurements were performed and the average force was calculated.
Tissues fixed in 10% neutral buffered formalin (NBF) overnight were imbedded in paraffin. Tissue was sectioned at […] using a microtome. H&E staining was conducted following a standard protocol (REF).

[8] = Degradation in the presence of serum; format: in vitro ADME; details: data not shown

For `O=C(COC(=O)Cc1ccccc1F)Nc1ccc(Cl)cn1` [ZINC5, 2-(2-fluorophenyl)acetic-acid-[2-[(5-chloro-2-pyridyl)amino]-2-keto-ethyl]-ester], the “dose-dependent inhibition of TNF-α-induced NF-κB activation, in words” value ([1]; 0, 6.25, 25, 50 and 100 μM) was “greater extent of inhibitory effect compared to compound 12909780”, the “inhibition of TNF-α-induced NF-κB activation (luciferase reporter), in words” value ([1]; listed as Zinc5) was “lowered NF-κB activity robustly” and the “inhibition of TNF-α-induced NF-κB activation (luciferase reporter), in words” value ([1]; listed as Zinc-5) was “able to inhibit TNF-alpha mediated activation of NF-κB, as or more efficiently as the NBD peptide”. For the same compound, the “cell death / toxicity (MTT assay)” value ([2]; HEK293, 24 hours) was “less than 10%”, the “cell toxicity, in words” value ([2]; at 50 and 100 μM) was “no cell toxicity observed” and the “level of phospho-IκBα / phosphorylation of IkB” value [3] was “reduced the level of p-IκBα dramatically”. The “TNFα-induced NF-κB DNA binding activity (EMSA)” value [4] was “significantly decreased TNFα-induced NF-κB DNA binding activity”, the “NF-κB DNA binding activity in quadriceps of mdx mice” value ([5]; 10 mg/kg) was “inhibited NF-κB DNA binding activity in quadriceps” and the “NF-κB DNA binding activity in quadriceps of mdx mice” value ([5]; listed as Zinc-5, 10 mg/kg) was “reduced NF-κB DNA binding activity in the skeletal muscle (quadricep)”. The “level of NEMO co-immunoprecipitated with IKKß” value [6] was “reduced the level of co-immunoprecipitated NEMO”, the “therapeutic benefit of chronic treatment of mdx mice” value [7] was “showed no therapeutic benefit” and the “degradation in the presence of serum” value [8] was “rapid degradation in the presence of serum”.
